Assay [1] has as its system Lung cancer cell line Calu-1. Nature of the assay: Inhibition of the growth of Calu-1 cells (CellTiter-Glo, 72 hours). It counts as cell-based. To be noted: Homo sapiens, 72 hours of culturing, read-out: Inhibitory activity on alu-1 cell growth IC50. The protocol:
14.2 Experimental Determination of Compound's Inhibitory Rate on the Growth of Calu-1 Cells
Lung cancer cell line Calu-1 was cultured in 90% McCoy's 5A medium (BI, 01-075-1ACS)+10% fetal bovine serum (Gibco, 10270106), placed in a CO2 incubator (37° C., 5% CO2, 95% air) for culturing. Calu-1 cells were digested with trypsin (Gibco, 12604-021) and seeded in a 384-well plate at a density of 500 cells per well. The medium was 50 μL and it was cultured overnight at 37° C. in an incubator. On the next day, different concentrations of test compounds were added, and the final concentration of DMSO was 0.1%. After 72 hours of culturing, the cells were taken out for test. The cell culture medium from the 384-well plate to be tested was removed, and fresh culture medium premixed with CTG was immediately added: the ratio of the culture medium to CellTiter-Glo® 2.0 reagent (Promega, G9243) was 2:1, 30 ul was added to each well. The plate was shaken at room temperature for 20 minutes, and then a multi-function plate reader (TECAN, Infinite 200 Pro) was used according to the reagent instructions to determine the cell survival.
According to the biological method described in this example, the selected compounds of the present invention were analyzed, and the results are shown in Table 1. Among them, “++” in Table 1 refers to the inhibitory activity on the growth of calu-1 cells with IC50≤5 μM; “+” refers to the inhibitory activity on the growth of calu-1 cells with IC50>5 μM.
A general note: ATP-based viability assays read luminescence as a measure of living cells.

Assay [2] addresses T1, TDG (Homo sapiens, UniProt Q13569). As to the kind of experiment: TDG inhibitory activity of compounds in cells (caC-cmv-firefly luciferase reporter, HEK 293T TDG KO cells transfected with pCDNA4-TDG). Conditions: read-out: Inhibition rate on TDG activity. Format: cell-based. The protocol:
Experimental Determination of TDG Inhibitory Activity of Compounds in Cells
The operation steps of this example are as follows:
(1) Preparation of Methylation Reporter Plasmid:
(a) SAM with a stock solution concentration of 32 mM was diluted with ultrapure water to 1600 μM;
(b) The reaction system was prepared according to the following ratio: 30 μl ultrapure water, 5 μl 10×NEBuffer 2, 5 μl diluted SAM, 1 μg pCpGL-CMV-firefly plasmid, 1 μl SssI methylase (4 U/μl); 50 μl in total, the reaction was carried out at 37° C. for 2 hours;
(c) The mixture was heated at 65° C. for 20 minutes. Then 0.2% SDS was added, the reaction was carried out at 80° C. for 10 min; and then 1 μl Proteinase K was added, the reaction was carried out at 50° C. for 1 h;
(d) The methylated plasmid was recovered with Dr. GenTLE® sedimentation aid (TAKARA).
(2) Preparation of 5fC/5caC pCpGL-CMV-Firefly Reporter Plasmid
(a) The following 10× reaction system was prepared:
(b) The reaction system was prepared according to the following ratio:
(c) The reaction was carried out at 37° C. for one hour;
(d) 24 μg Tet1 protein was added for the second time and the reaction was continued for one hour;
(e) SDS was added to a final concentration of 0.5%, 80° C., 10 minutes, then 1 μl Proteinase K was added, 55° C. overnight.
(f) The treated caC-cmv-firefly plasmid was recovered with Dr. GenTLE® sedimentation aid (TAKARA) and was quantified.
(3) Using the Luciferase Activity Assay Method to Detect the Inhibitory Rate of Small Molecule Compounds on Intracellular TDG Enzyme Activity
In a 96-well plate, the reaction system and operation flow of each well were as follows:
(a) 1 ng caC-cmv-firefly, Ing pCpGL-CMV-Relina and 150 ng pCDNA4-TDG or 150 ng pCDNA4-myc plasmid, were diluted to 75 ul Opti-MEM, mixed well and allowed to stand still for 5 minutes;
(b) 2 ul transfection reagent (Hieff Trans™ Liposomal transfection Reagent (0.5 ul/well, YEAEEN, Cat #40802)) was diluted in 100 ul Opti-MEM, mixed well and allowed to stand still for 5 minutes;
(c) 75 ul of (a) and (b) were mixed respectively, and allowed to stand still at room temperature for 20 minutes;
(d) HEK 293T TDG KO cells were digested with trypsin, the cells were collected and counted, and the suspension cell concentration was adjusted to 4×10^5/ml;
(e) 50 ul of the mixture (c) was added to each well, and at the same time 100 ul of the diluted cell suspension was added to the same well, and they were mixed well.
(f) After the cells adhering to the wall, different concentrations of small molecule compounds to be tested were added to each well.
(g) Incubation was performed in a 37° C. CO2 incubator for 72 hours. The supernatant was removed and the cells were quickly freezed at −80° C.
(h) Before detecting the luciferase activity, the cells to be tested were removed from −80° C. and allowed to stand still at room temperature for 30 minutes. Following the instructions of Dual-Glo® Luciferase Reagent (PROMEGA), the firefly fluorescence value and Renilla fluorescence value of each well were detected.
(i) The firefly fluorescence value was divided with the Renilla fluorescence value of each well; 96-well plate Z′ and experimental window was calculated by the ratio of transfected caC-cmv-firefly, pCpGL-CMV-Relina, pCDNA4-TDG plasmid mixture plus DMSO experimental group to transfected caC-cmv-firefly, pCpGL-CMV-Relina, pCDNA4-myc plasmid mixture plus DMSO experimental group, and the relative enzyme activity inhibition rate of each compound was calculated.
According to the biological method described in this example, the selected compounds of the present invention were analyzed, and the results are shown in Table 2. Among them, “+” in Table 2 refers to the compound's TDG inhibitory activity at a concentration of 10 μM≤25%; “++” refers to the compound's TDG inhibitory activity at a concentration of 10 μM>25%.
A general note: Reporter assays use an easily measured gene product as a stand-in for the process of interest.

The target in assay [3] is T1, TDG. As to the kind of experiment: Inhibition of TDG mismatch repair activity (fluorescent G·U double-stranded DNA probe T1-T2). Format: biochemical. To be noted: TDG 100 nM/L, preincubated with compound 37° C. 30 minutes; probe 30 nM; read-out: Inhibitory activity on TDG mismatch repair IC50. From the text: 14.1 Experimental Determination of Compound's Inhibitory Rate on TDG Mismatch Repair Activity
(1) A double-stranded DNA probe T1-T2 containing uracil bases was synthesized. The nucleotide sequence of the T1 chain was: 5′-FAM-TAAUGTGAATGGAGCTGAAAT-biotin-3′; The nucleotide sequence of the T2 chain was 5′-ATTTCAGCTCCATTCACGTTA-3′. Using PCR annealing program, the T1 strand and T2 strand were complementary to form a double-stranded DNA probe T1-T2.
(2) The reaction system and steps for each well of a 96-well plate were as follows: a. TDG (100 nM/L) was mixed with different concentrations of compounds, and the mixture was incubated at 37° C. for 30 minutes. The composition of the reaction buffer was: 20 mM HEPES pH7.5, 100 mM NaCl, 0.2 mM EDTA, 2.5 mM MgCl2; b. The double-stranded DNA probe T1-T2 was added to the mixture to obtain a final volume of 100 μL, with a concentration of 30 nM, and the mixture was incubated at 25° C. for 30 min; c. 1 μL of streptavidin magnetic beads were added to the reaction solution and fully bound the biotin-labeled DNA for 1 hour; d. NaOH was added to the reaction solution to a final concentration of 200 mM, and the mixture was incubated at room temperature for 30 minutes; e. Under the action of a magnetic stand the streptavidin magnetic beads were adsorbed to the tube wall, the supernatant was transferred to a new 96-well plate, and placed in a Tecan microplate reader for fluorescence measurement. The parameter settings were: excitation wavelength 485 nm; emission wavelength 520 nm. A linear curve between fluorescence intensity and TDG concentration was constructed, R^2=0.9968, and the linear range was 0-50 nM/L;
According to the biological method described in this example, the selected compounds of the present invention were analyzed, and the results are shown in Table 1. Among them, “++” in Table 1 refers to the inhibitory activity for TDG mismatch repair with IC50≤5 μM; “+” refers to the inhibitory activity for TDG mismatch repair with IC50>5 μM.

This is an account of results in patent US20220213070A1, “COMPOUNDS INHIBITING TDG ACTIVITY” (EPITAS BIOSCIENCES (SHANGHAI) CO., LTD., priority 2019, published 2022).

T1 sequence (Q13569 whole entry): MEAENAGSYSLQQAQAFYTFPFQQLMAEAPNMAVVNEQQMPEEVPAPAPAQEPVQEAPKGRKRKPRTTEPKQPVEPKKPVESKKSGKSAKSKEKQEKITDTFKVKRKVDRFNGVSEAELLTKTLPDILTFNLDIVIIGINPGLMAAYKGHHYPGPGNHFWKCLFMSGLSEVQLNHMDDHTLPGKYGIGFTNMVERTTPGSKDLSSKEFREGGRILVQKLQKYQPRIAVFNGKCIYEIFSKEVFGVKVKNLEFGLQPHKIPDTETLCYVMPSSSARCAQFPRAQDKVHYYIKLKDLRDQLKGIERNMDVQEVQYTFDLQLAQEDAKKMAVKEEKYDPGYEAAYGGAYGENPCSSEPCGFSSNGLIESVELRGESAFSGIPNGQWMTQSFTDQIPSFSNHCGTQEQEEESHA

The IC50 is the concentration needed to halve the response being measured. In general, inhibition refers to the change of the read-out against control, counted positive when it falls. With `O=C(CCN1CCc2ccccc2C(O)(c2ccc(F)cc2)C1)c1ccc2c(c1)C(=O)CCO2` (centres unmarked) [Compound 54, 6-(3-(1-(4-fluorophenyl)-1-hydroxy-1,2,4,5-tetrahydro-3H-benzo[d]azepine-3-yl)propionyl)chroman-4-one], the half-maximal inhibitory concentration (IC50) in assay [1] and in assay [3] was no more than 5 µM each time. For the same molecule, the inhibition at 10 µM in assay [2] was less than 25%.

On to `O=C(CCN1Cc2ccc([N+](=O)[O-])cc2C1)c1ccc2c(c1)OCCO2` [Compound 2, 1-(2,3-dihydrobenzo[b][1,4]dioxin-6-yl)-3-(5-nitroisoindo1-2-yl)propan-1-one], for which the half-maximal inhibitory concentration (IC50) in assay [1] and in assay [3] was no more than 5 µM each time. The inhibition at 10 µM in assay [2] was less than 25%.

Take `O=C(CCN1CCC(c2ccccc2)CC1)c1ccc2c(c1)OCCO2` [Compound 21, 1-(2,3-dihydrobenzo[b][1,4]dioxin-6-yl)-3-(4-phenylpiperidin-1-yl)propan-1-one]: the half-maximal inhibitory concentration (IC50) in assay [1] is greater than 5 µM; in assay [3], no more than 5 µM. In addition, in assay [2], the inhibition at 10 µM was less than 25%.

In the case of `O=C(CCN1CCc2ccccc21)c1ccc2c(c1)OCCO2` [Compound 11, 1-(2,3-dihydrobenzo[b][1,4]dioxin-6-yl)-3-(indoline-1-yl)propan-1-one], the IC50 in assay [1] and in assay [3] was greater than 5 µM in each case. The inhibition at 10 µM in assay [2] was less than 25%.

With `O=C(CCN1Cc2ccccc2C1)c1ccc2c(c1)SCCO2` [Compound 37, 1-(2,3-dihydrobenzo[b][1,4]oxathion-6-yl)-3-(isoindolin-2-yl)propan-1-one], the 50% inhibitory concentration (IC50) in assay [1] and in assay [3] was greater than 5 µM in each case. The inhibition at 10 µM in assay [2] was less than 25%.

Turning to `O=C(CCN1C(=O)c2ccccc2C1=O)c1ccc2c(c1)OCCO2` [Compound 12, 2-(3-(2,3-dihydrobenzo[b][1,4]dioxin-6-yl)-3-oxopropyl)isoindole-1,3-dione], the half-maximal inhibitory concentration (IC50) in assay [1] and in assay [3] was greater than 5 µM in each case. Moreover, the inhibition at 10 µM in assay [2] was less than 25%.

`O=C(CCN1CCC(c2ccc(F)c(O)c2)C1)c1ccc2c(c1)OCCO2` (centres unmarked) [Compound 52, 1-(2,3-dihydrobenzo[b][1,4]dioxin-6-yl)-3-(3-(4-fluoro-3-hydroxyphenyl)pyrrolidine-1-yl)propan-1-one]: the IC50 in assay [1] and in assay [3] was no more than 5 µM in each case. Further, the inhibition at 10 µM in assay [2] is less than 25%.

Consider `O=C(CCN1CC2C=CC(c3ccncc3)=CC2C1)c1ccc2c(c1)OCCO2` (centres unmarked) [Compound 41, 1-(2,3-dihydrobenzo[b][1,4]dioxin-6-yl)-3-(5-(pyridin-4-yl)-1,3,3a,7αtetrahydro-2H-isoindolepyridin-2-yl)propan-1-one], for which the half-maximal inhibitory concentration (IC50) in assay [1] and in assay [3] was greater than 5 µM in each case. Further, the inhibition at 10 µM in assay [2] is less than 25%.

As to `O=C(CCN1Cc2ccccc2C1)c1ccc2c(c1)OCO2` [Compound 35, 1-(benzo[d][1,3]dioxo1-5-yl)-3-(isoindolin-2-yl)propan-1-one], the 50% inhibitory concentration (IC50) in assay [1] and in assay [3] was no more than 5 µM each time. Further, the inhibition at 10 µM in assay [2] was less than 25%.

`Nc1ccc2c(c1)CN(CCC(=O)c1ccc3c(c1)OCCO3)C2` [Compound 9, 3-(5-aminoisoindolin-2-yl)-1-(2,3-dihydrobenzo[b][1,4]dioxin-6-yl)propan-1-one]: the IC50 in assay [1] and in assay [3] was no more than 5 µM in each case. Further, the inhibition at 10 µM in assay [2] was greater than 25%.

Consider `O=C(CCN1CCC(c2ccc(C(F)(F)F)cc2)C1)c1ccc2c(c1)OCCO2` (centres unmarked) [Compound 45, 1-(2,3-dihydrobenzo[b][1,4]dioxin-6-yl)-3-(3-(4-(trifluoromethyl)phenyl)pyrrolidine-1-yl)propan-1-one], for which the IC50 in assay [1] is no more than 5 µM; in assay [3], greater than 5 µM. In assay [2], the inhibition at 10 µM is less than 25%.

Consider `Cc1ccc(C2CCN(CCC(=O)c3ccc4c(c3)OCCO4)C2)cc1` (centres unmarked) [Compound 48, 1-(2,3-dihydrobenzo[b][1,4]dioxin-6-yl)-3-(3-(p-tolyl)pyrrolidin-1-yl)propan-1-one], for which the 50% inhibitory concentration (IC50) in assay [1] and in assay [3] was no more than 5 µM in each case.
